# Measured values: patent US9133207B2, “Tetrandrine derivatives with substituted 5-carbon, preparation method and use thereof” (Hangzhou Bensheng Pharmaceutical Co., Ltd., priority 2011, dated 2015)
# How the values were obtained:
# [1] = test system: K562/adr (drug-resistant, chronic myeloid leukemia, CML); test: Leukemia cell growth inhibition, MTT, 72 h (Example 5); format: cell-based, human; conditions: Homo sapiens, K562/Adr; 72 h, MTT
# Procedure, shortened: (§1)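 6000 cells/well in RPMI 1640 with 10% FBS exposed to graded derivative concentrations for 72 h at 37 °C, 5% CO2. Viable cell concentration then measured by MTT.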
# [2] = test system: NB4 (acute promyelocytic leukemia, AML); test: as above; format: cell-based, human; conditions: Homo sapiens; 72 h, MTT
# Procedure, shortened: as §1
# [3] = test system: Kasumi-1 (acute myeloid leukemia M2 type, AML-M2); test: as above; format: cell-based, human; conditions: Homo sapiens, Kasumi 1
# Procedure, shortened: as §1
# [4] = test system: H9 (acute lymphoblastic leukemia, ALL); test: as above; format: cell-based, human; conditions: Homo sapiens; 72 h, MTT
# Procedure, shortened: as §1
# [5] = test system: Jurkat (acute lymphoblastic leukemia, ALL); test: as above; format: cell-based, human; conditions: for IC50 / IC90: Homo sapiens, Jurkat, 72 h, MTT
# Procedure, shortened: as §1
# [6] = mouse, in vivo, 50 mg/kg
# Procedure: (§7) Animal: BALB/c nude mice, 8 weeks, female, purchased from Shanghai Laboratory Animal Center of Chinese Academy of Sciences, China.
# (§8) The mice are administered from the third day after the inoculation. Each mouse is intragastrically administered in 0.4 ml each time and 3 times a day, at 8:00, 14:00 and 20:00, with 6-hour intervals. The administrations are successive for 10 days. The day before administration is deemed as Day 0 and the body weight and tumor size are determined every 5 days to produce a dynamic plot on body weight and tumor growth. On Day 29, the mice are dissected and the tumors are taken out and weighted. The tumor inhibition rate (%) is calculated after the effect of the medicament based on the tumor inhibition rate of the control group being zero.
# (§9) The values determined are presented as mean±standard error (M±SD).
# [7] = test system: CNE (nasopharyngeal carcinoma cell); test: Solid tumor cell growth inhibition, MTT, 72 h (Example 7); format: cell-based; conditions: Homo sapiens
# Procedure, shortened: (§2)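 Read-out is MTT-based viable cell concentration, reported as % viability relative to untreated control set at 100%. Cells at 4000 per well received tetrandrine derivatives at various concentrations for 72 h after 24 h attachment in DMEM high glucose/10% FBS, 37 °C, 5% CO2.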
# [8] = test system: Hela (human cervical cancer cell); test: as above; format: cell-based; conditions: Homo sapiens; 72 h, MTT, Hela
# Procedure, shortened: as §2
# [9] = test system: Huh7 (human liver cancer cell); test: as above; format: cell-based; conditions: for IC50 / IC90: Homo sapiens, 72 h, MTT, Huh-7
# Procedure, shortened: as §2
# [10] = test system: U87 MG (malignant glioma cell); test: as above; format: cell-based; conditions: Homo sapiens, U-87 MG
# Procedure, shortened: as §2
# [11] = test system: A549 (human lung cancer); test: as above; format: cell-based; conditions: Homo sapiens; 72 h, MTT, A549
# Procedure, shortened: as §2
# [12] = test system: SK-OV-3 (ovarian cancer cell); test: as above; format: cell-based; conditions: Homo sapiens
# Procedure, shortened: as §2
# [13] = test system: RKO (human colon adenocarcinoma cell); test: as above; format: cell-based; conditions: Homo sapiens; 72 h, MTT, RKO
# Procedure, shortened: as §2
# [14] = test system: Becap37 (human breast cancer cell); test: as above; format: cell-based; conditions: for IC50 / IC90: Homo sapiens, 72 h, MTT, Becap-37
# Procedure, shortened: as §2
# [15] = test system: MGC 803 (human gastric cancer cell); test: as above; format: cell-based; conditions: Homo sapiens
# Procedure, shortened: as §2
# [16] = Experiment 8-2: body weight of nude mice, preliminary toxicity
# Procedure: as §7, §8, §9
# [17] = test system: RPMI8226 (multiple myeloma); test: Multiple myeloma cell growth inhibition, MTT, 72 h (Example 6); format: cell-based, human; conditions: Homo sapiens, RPMI-8226; 72 h, MTT, RPMI8226
# Procedure, shortened: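 RPMI8226 cells (6000 per well) in RPMI 1640 with 10% FBS were exposed to a range of tetrandrine derivative concentrations for 72 h at 37 °C under 5% CO2. Viable cell concentration was then measured by MTT.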
# [18] = test system: human non-small cell lung cancer cell line A549 transplanted tumor; test: Experiment 8-2: transplanted tumor of human lung cancer in nude mice; format: in vivo, BALB/c nude mice
# Text: (§3) Cell lines: human non-small cell lung cancer cell line A549, from China Center for Type Culture Collection (CCTCC);
# (§4) The administrations are successive for 10 days.
# [19] = test system: PC-3 (prostate cancer); test: Solid tumor cell growth inhibition, MTT, 72 h (Example 7); format: cell-based, human; conditions: Homo sapiens; 72 h, MTT, PC-3
# Procedure, shortened: as §2
# [20] = test system: PANC-1 (pancreatic cancer); test: as above; format: cell-based, human; conditions: for IC50 / IC90: Homo sapiens, 72 h, MTT, PANC-1
# Procedure, shortened: as §2
# [21] = test system: CaES-17 (esophageal cancer cell); test: as above; format: cell-based, human; conditions: Homo sapiens, CaEs17; 72 h, MTT, CAES-17
# Procedure, shortened: as §2
# [22] = test system: MG63 (osteosarcoma); test: as above; format: cell-based, human; conditions: Homo sapiens; 72 h, MTT, MG-63
# Procedure, shortened: as §2
# [23] = test system: Hep-2 (laryngeal carcinoma); test: as above; format: cell-based, human; conditions: Homo sapiens; 72 h, MTT, Hep 2
# Procedure, shortened: as §2
# [24] = test system: human breast cancer multidrug resistant lines MCF-7/ADR; conditions: 2.5 μmol/L tetrandrine; cited from earlier work
# [25] = Experiment 8-1: body weight of nude mice, preliminary toxicity; format: in vivo, BALB/c nude mice; conditions: M±SD
# Procedure: (§5) BS-TE-403 and BS-TE-333 (the present invention), and tetrandrine TTD from Jiangxi Jinfurong Pharmaceutical Co., Ltd. All compounds are administered at the dosage of 50 mg/kg weight each time.
# (§6) The experiments are divided into 4 groups: negative control group (solvent group), positive control group (lead compound TTD group), BS-TE-403 group and BS-TE-333 group.
# as §4
# [26] = test system: human non-small cell lung cancer cell line A549 transplanted tumor; test: Experiment 8-1: transplanted tumor of human lung cancer in nude mice; format: in vivo, BALB/c nude mice; conditions: 50 mg/kg intragastric, 3 times a day, 10 days
# Procedure: as §3, §5
# Under sterile conditions, the above tumor cells in the logarithmic growth phase are collected and injected by subcutaneous injection in an amount of 5×10^6/0.2 ml/nude mice (cell viability>95%) into the right subaxillary of the nude mice, thus establishing a transplated tumor model of human non-small cell lung cancer in nude mice.
# as §6, §4
smiles,measurement,setting,value
COc1ccc2cc1Oc1ccc(cc1)C[C@H]1c3cc(c(OC)cc3CCN1C)Oc1c(OC)c(OC)c(CN3CCC(N(C)C)CC3)c3c1[C@H](C2)N(C)CC3 [BS-TE-354],IC50,[1],0.99 µg/mL
same,IC90,[1],2.65 µg/mL
same,IC50,[2],0.4 µg/mL
same,IC90,[2],1 µg/mL
same,IC50,[3],0.37 µg/mL
same,IC90,[3],1.97 µg/mL
same,IC50,[4],0.78 µg/mL
same,IC90,[4],1.25 µg/mL
same,IC50,[5],0.5 µg/mL
same,IC90,[5],2.23 µg/mL
same,anti-Jurkat activity increase over tetrandrine,[5]; compared with tetrandrine,~4 fold
same,toxic and side effect under such a dosage,[6],has caused some toxic and side effect
same,IC50,[7],0.54 µg/mL
same,IC90,[7],1.62 µg/mL
same,IC50,[8],1.07 µg/mL
same,IC90,[8],2.81 µg/mL
same,IC50,[9],0.65 µg/mL
same,IC90,[9],0.98 µg/mL
same,anti-Huh7 activity increase over tetrandrine,[9]; compared with tetrandrine,~8 fold
same,IC50,[10],0.31 µg/mL
same,IC90,[10],1.44 µg/mL
same,IC50,[11],1.8 µg/mL
same,IC90,[11],9.8 µg/mL
same,IC50,[12],1.4 µg/mL
same,IC90,[12],> 16 µg/mL
same,IC50,[13],0.25 µg/mL
same,IC90,[13],0.51 µg/mL
same,IC50,[14],0.4 µg/mL
same,IC90,[14],2.4 µg/mL
same,anti-Becap37 activity increase over tetrandrine,[14]; compared with tetrandrine,17 fold
same,IC50,[15],0.83 µg/mL
same,IC90,[15],3.93 µg/mL
same,weight loss as compared with the weight in the control group (FIG. 6),[16]; 50 mg/kg,relatively remarkable
same,Weight (g) Final,"[16]; 50 mg/kg intragastric, 3 times a day, 10 days, final body weight, M±SD",16.08 ± 1.00 g
same,Weight (g) Initial,"[16]; nude mice body weight before administration, M±SD",22.25 ± 0.29 g
same,IC50,[17],0.08 µg/mL
same,IC90,[17],1.58 µg/mL
same,effect on transplanted tumor of human lung cancer in nude mice,[18]; 50 mg/kg,exhibits inhibiting effect
same,Mass of tumor,"[18]; 50 mg/kg intragastric, 3 times a day, 10 days, Day 29, M±SD",423.25 ± 364.28 mg
same,Tumor Inhibition rate (%),"[18]; 50 mg/kg intragastric, 3 times a day, 10 days, Day 29, control = zero",43.60%
same,IC50,[19],1.9 µg/mL
same,IC90,[19],2.5 µg/mL
same,IC50,[20],1.25 µg/mL
same,IC90,[20],6.31 µg/mL
same,anti-PANC-1 activity increase over tetrandrine,[20]; compared with tetrandrine,2 fold
same,IC50,[21],0.91 µg/mL
same,IC90,[21],4.89 µg/mL
same,IC50,[22],0.68 µg/mL
same,IC90,[22],0.9 µg/mL
same,IC50,[23],2.05 µg/mL
same,IC90,[23],6.19 µg/mL
"COc1ccc2cc1Oc1ccc(cc1)C[C@H]1c3cc(c(OC)cc3CCN1C)Oc1c(OC)c(OC)cc3c1[C@H](C2)N(C)CC3 [TTD, 6,6′,7,12-tetramethoxy-2,2′dimethylberbamine, reference compound]",IC50,[1],0.44 µg/mL
same,IC90,[1],2.14 µg/mL
same,IC50,[2],1.6 µg/mL
same,IC90,[2],4.1 µg/mL
same,IC50,[3],1.69 µg/mL
same,IC90,[3],8.24 µg/mL
same,IC50,[4],2.69 µg/mL
same,IC90,[4],6.4 µg/mL
same,IC50,[5],2.09 µg/mL
same,IC90,[5],9.85 µg/mL
same,IC50,[7],3.3 µg/mL
same,IC90,[7],6.2 µg/mL
same,IC50,[8],4.05 µg/mL
same,IC90,[8],9.24 µg/mL
same,IC50,[9],5.05 µg/mL
same,IC90,[9],7.81 µg/mL
same,IC50,[10],0.66 µg/mL
same,IC90,[10],3.58 µg/mL
same,IC50,[11],2.9 µg/mL
same,IC90,[11],12.5 µg/mL
same,IC50,[12],9.04 µg/mL
same,IC90,[12],> 16 µg/mL
same,IC50,[13],2.72 µg/mL
same,IC90,[13],6.3 µg/mL
same,IC50,[14],6.9 µg/mL
same,IC90,[14],15 µg/mL
same,IC50,[15],1.97 µg/mL
same,IC90,[15],7.41 µg/mL
same,increase of adriamycin cytotoxicity on drug-resistant tumors,[24],20.4 times
same,Weight (g) Final,"[25]; 50 mg/kg intragastric, 3 times a day, 10 days, final body weight",19.10 ± 2.02 g
same,Weight (g) Initial,[25]; nude mice body weight before administration,22.40 ± 0.26 g
same,IC50,[17],0.37 µg/mL
same,IC90,[17],2.54 µg/mL
same,Mass of tumor,"[26]; Day 27, M±SD",799.00 ± 349.09 mg
same,Tumor Inhibition rate (%),"[26]; Day 27, control = zero",13.95%
same,IC50,[19],6.01 µg/mL
same,IC90,[19],10.8 µg/mL
same,IC50,[20],3.16 µg/mL
same,IC90,[20],7.02 µg/mL
same,IC50,[21],8.34 µg/mL
same,IC90,[21],> 16 µg/mL
same,IC50,[22],1.9 µg/mL
same,IC90,[22],3.7 µg/mL
same,IC50,[23],3.88 µg/mL
same,IC90,[23],11.9 µg/mL
